Results: patent publication US9278957B2, “Piperazine, piperidine and tetrahydropyridine derivatives and their pharmaceutical use” (ATIR Holding S.A., priority 2009, dated 2016)

Tests used:
dopamine D2 receptor = dopamine D2 receptor (Homo sapiens, UniProt P14416); assay: dopamine D2 receptor binding (inhibition of labeled ligand binding); conditions: compound at 1micrMol
Method: (§1) The compounds of the invention may be used in the treatment of CNS disorders in mammals, especially human. Of particular interest is the use of the compounds of the invention as anti-dyskinetic agents. Dyskinesia is a serious side effect associated with L-DOPA treatment of patients with Parkinson's disease.
(§2) The compounds of Examples 1, 3, 4 and 9 were tested for their 5-HT1A receptor binding activity and dopamine (D2, D3 and D4.4) receptors binding activity according to the protocols set forth above. The percentage inhibition of labeled ligand binding caused by the indicated few test ligand compound of the invention at different concentrations of said test ligand is shown in Table I.

dopamine D4.4 receptor = target: T1, dopamine D4.4 receptor (Homo sapiens, UniProt P21917); assay: dopamine D4.4 receptor binding (inhibition of labeled ligand binding); conditions: compound at 1micrMol
T1 sequence (P21917 1-419): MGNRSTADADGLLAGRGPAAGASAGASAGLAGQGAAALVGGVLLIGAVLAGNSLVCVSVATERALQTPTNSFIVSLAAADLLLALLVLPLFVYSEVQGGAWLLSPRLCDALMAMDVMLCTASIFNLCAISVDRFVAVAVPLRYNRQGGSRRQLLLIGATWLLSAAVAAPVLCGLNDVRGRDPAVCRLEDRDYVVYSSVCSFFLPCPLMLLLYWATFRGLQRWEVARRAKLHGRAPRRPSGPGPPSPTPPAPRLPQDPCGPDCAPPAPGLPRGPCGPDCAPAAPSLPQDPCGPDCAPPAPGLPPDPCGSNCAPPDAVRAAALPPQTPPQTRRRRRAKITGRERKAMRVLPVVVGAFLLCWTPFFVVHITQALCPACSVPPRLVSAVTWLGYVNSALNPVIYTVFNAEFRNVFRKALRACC
Method: as §1, §2

dopamine D3 receptor = dopamine D3 receptor (Homo sapiens, UniProt P35462); assay: dopamine D3 receptor binding (inhibition of labeled ligand binding); conditions: compound at 1micrMol
dopamine D3 receptor, sequence (P35462 whole entry): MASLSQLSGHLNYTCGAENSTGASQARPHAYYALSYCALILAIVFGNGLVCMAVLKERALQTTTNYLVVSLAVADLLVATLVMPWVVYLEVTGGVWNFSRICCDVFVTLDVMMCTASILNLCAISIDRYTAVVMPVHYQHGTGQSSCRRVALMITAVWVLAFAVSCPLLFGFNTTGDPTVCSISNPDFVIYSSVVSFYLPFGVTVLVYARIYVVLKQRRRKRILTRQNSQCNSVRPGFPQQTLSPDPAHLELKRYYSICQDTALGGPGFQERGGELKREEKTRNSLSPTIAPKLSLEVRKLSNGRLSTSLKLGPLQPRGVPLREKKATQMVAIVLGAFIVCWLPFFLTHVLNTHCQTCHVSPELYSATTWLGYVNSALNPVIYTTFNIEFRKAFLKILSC
Method: as §1, §2

[1] = system: L-DOPA induced dyskinesia in parkinsonian rats; assay: L-DOPA-induced abnormal involuntary movements (AIMS) in the 6-OHDA lesion rat model; assay type: in vivo
Method: In the following study, the compound of Example 2 was tested for its in vivo activity against L-DOpA induced dyskinesia in parkinsonian rats (the model is the L-DOPA-induced abnormal involuntary movements (AIMS) in the 6-hydroxydopamine (6-OHDA) lesion rat model).
Rats were unilaterally lesioned with (6-OHDA) in medial forebrain bundle. Three weeks later, rats were injected with apomorphine (0.1 mg/kg s.c.) and numbers of contralateral turns were counted using a rotameter. Two weeks after the apomorphine test, rats showing marked turning activity were selected and split into 2 groups:
The experimental group, which received the compound of Example 2, and the control group, which received the injection medium for said compound (CMC in saline); n=5 and 3 respectively.
All animals were treated daily with L-dopa/carbidopa (25/6 mg/kg respectively) and dyskinetic movements were scored commencing day 5. Compounds were administered in escalating dose, at daily doses shown below, commencing day 11 of L-dopa treatment: 1 mg/kg—11th day, 1 mg/kg—12th, 2 mg/kg—15th, 2 mg/kg—16th. On the 17th day, the rats of the control group were injected with propranolol (10 mg/kg in saline), whereas the rats of the experimental group were injected with saline. […]
The following dyskinetic movements were scored: dystonic posturing, head and upper body movements, forelimb, locomotion, trunk, orolingual.

5-HT1A receptor = target: T2, 5-HT1A receptor (Homo sapiens, UniProt P08908); assay: 5-HT1A receptor binding (inhibition of labeled ligand binding); conditions: compound at 1micrMol
T2 sequence (P08908 1-422): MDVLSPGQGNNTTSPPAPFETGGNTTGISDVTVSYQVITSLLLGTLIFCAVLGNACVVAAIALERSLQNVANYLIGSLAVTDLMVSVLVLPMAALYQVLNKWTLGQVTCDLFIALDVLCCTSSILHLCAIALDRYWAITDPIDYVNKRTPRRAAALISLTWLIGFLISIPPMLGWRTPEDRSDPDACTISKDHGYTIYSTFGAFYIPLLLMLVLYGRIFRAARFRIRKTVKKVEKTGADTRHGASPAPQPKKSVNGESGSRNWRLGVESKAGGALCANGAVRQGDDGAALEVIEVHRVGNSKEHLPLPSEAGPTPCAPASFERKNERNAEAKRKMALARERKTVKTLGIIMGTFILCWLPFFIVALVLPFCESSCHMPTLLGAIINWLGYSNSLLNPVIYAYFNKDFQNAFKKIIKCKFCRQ
Method: as §1, §2

dopamine D2 receptor, sequence (P14416 whole entry): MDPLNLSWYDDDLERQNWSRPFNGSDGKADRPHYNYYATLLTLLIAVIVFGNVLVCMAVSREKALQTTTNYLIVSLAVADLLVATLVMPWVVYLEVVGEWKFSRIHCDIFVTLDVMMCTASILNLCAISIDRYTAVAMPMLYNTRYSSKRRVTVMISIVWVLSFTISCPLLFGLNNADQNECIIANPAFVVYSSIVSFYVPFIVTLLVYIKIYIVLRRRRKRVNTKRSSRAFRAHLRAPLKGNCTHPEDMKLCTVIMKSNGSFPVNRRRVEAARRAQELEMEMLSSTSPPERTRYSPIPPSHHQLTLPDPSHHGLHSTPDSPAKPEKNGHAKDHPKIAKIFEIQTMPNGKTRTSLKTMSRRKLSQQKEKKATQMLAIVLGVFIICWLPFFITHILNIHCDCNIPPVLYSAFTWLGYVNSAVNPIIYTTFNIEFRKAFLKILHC

| Structure (SMILES) | D2 binding, percentage inhibition of labeled ligand binding (dopamine D2 receptor) [%] | D4 binding, percentage inhibition of labeled ligand binding (dopamine D4.4 receptor) [%] | D3 binding, percentage inhibition of labeled ligand binding (dopamine D3 receptor) [%] | anti-dyskinetic effect (AIM score, sum of all movements) ([1]; 6-OHDA lesioned rats on daily L-dopa/carbidopa 25/6 mg/kg, 16th day, second successive daily dose of 2 mg/kg) | 5-HT1A binding, percentage inhibition of labeled ligand binding (5-HT1A receptor) [%] | effect on abnormal involuntary movements (AIM score) ([1]; 6-OHDA lesioned rats on L-dopa/carbidopa, control group, 10 mg/kg in saline on the 17th day) |
| --- | --- | --- | --- | --- | --- | --- |
| Oc1cccc(N2CCN(Cc3cccc4c3oc3ccccc34)CC2)c1 [Example L-33] | 75 | 77.7 | 78.2 | strong anti-dyskinetic effect | 43.4 | – |
| c1ccc(C2CCN(Cc3cccc4c3oc3ccccc34)CC2)cc1 [Example L-105] | 93.8 | 69.1 | 44.5 | – | 42.2 | – |
| COc1ccccc1N1CCN(Cc2cccc3c2oc2ccccc23)CC1 [Example L-107] | 96 | 78 | 33.7 | – | 86.7 | – |
| N#Cc1ccccc1N1CCN(Cc2cccc3c2oc2ccccc23)CC1 [Example L-109] | 68.7 | 64.9 | 63.2 | – | 73.5 | – |
| CC(C)NCC(O)COc1cccc2ccccc12 (stereo not drawn) [Propanolol, propranolol, reference compound] | – | – | – | – | – | reduced the abnormal involuntary movements |
